These are literature values, as cited in EP0305400B1, “A COMPOSITION HAVING REDUCED NEPHROTOXICITY COMPRISING A FATTY ACID CONTAINING COMPONENT AND CYCLOSPORINE” (BRIGHAM AND WOMEN'S HOSPITAL, priority 1986, dated 1987).

The subject of the data set is Tx synthetase. The note with it: rats treated with CSA.

As to `Cc1c(Cn2ccnc2)c2ccccc2n1CCC(=O)O` [UK-38,485], the “glomerular filtration rate (GFR)” value is recorded as “improved” and the “urinary TxB2 levels” value is on record as “comparable to control levels”.
